Assay results as given in patent publication US20240114949A1, “AEROSOLIZABLE MATERIAL” (Nicoventures Trading Limited, priority 2019, published 2024).

Assay: Solubility of cannabidiol isolate in glycerol/propylene glycol/water solutions
Type: physicochemical
Conditions: Isolate 10 mg/mL

C=C(C)[C@@H]1CCC(C)=C[C@H]1c1c(O)cc(CCCCC)cc1O [Isolate, cannabidiol]
Soluble (Glycerol 36, PG 52.09, Water 11 (w/w)): YES | Soluble (Glycerol 36, PG 53.09, Water 10 (w/w)): YES | soluble at 10 mg/mL (yes/no) (glycerol/propylene glycol/water solution, organic solvent or mixture, Glycerol 36, PG 47.09, Water 16 (w/w)): < 10000 µg/mL
